Results from patent US11124518B2, “L,2-dihydro-3H-pyrazolo[3,4-D]pyrimidin-3-one analogs” (Recurium IP Holdings, LLC, priority 2017, dated 2021).
Where a name gives a salt, the structure may show the parent alone.

What was measured:
Wee1 kinase = Wee1 kinase (Homo sapiens (Human), UniProt P30291); experiment: Wee1 Binding Assay (FRET); conditions: Wee1 kinase 2 nM, tracer 178 50 nM, 60 min at RT, read-out: Wee1 Enzymatic IC50
Procedure: Wee 1 kinase was determined by using Flurorescence Resonance Energy Transfer (FRET) assay. […] The plate was shaken for 30 seconds, incubated for 60 min at RT, and recorded on fluorescence plate reader.

SW480 cells = experiment: SW480 Cellular Proliferation Assay (CellTiter-Glo); assay type: cell-based; conditions: Homo sapiens, 96 h, 4 days
Procedure: (§1) Cells were treated with compounds diluted in DMSO and a 10 point 3-fold serial dilutions. Plates were placed in 37° C., 5% CO2 for to incubate for 4 days. Before they were developed by adding 100 μL of CellTiter-Glo reagent (Promega) to the assay plate, plates were shaken briefly for 2 mins and allowed to incubate at RT for 60 mins. The bottom of the plates was pasted with white back seal and luminescence was recorded with Enspire or Envision.

H23 cells = experiment: H23 Cellular Proliferation Assay (CellTiter-Glo); assay type: cell-based; conditions: Homo sapiens, NCI-H23, 96 h, 4 days
Procedure: as §1, with “a 9” for “a 10”, “point 5-fold” for “point 3-fold”, “CO2” for “CO2 for”, “for 10” for “for 60”, “mins. The plates are read with a M5e plate reader according to CellTiter-Glo protocol. The GraphPad Prism software was used to get IC50 values.” for “mins.”

Sequence of Wee1 kinase (P30291 whole entry): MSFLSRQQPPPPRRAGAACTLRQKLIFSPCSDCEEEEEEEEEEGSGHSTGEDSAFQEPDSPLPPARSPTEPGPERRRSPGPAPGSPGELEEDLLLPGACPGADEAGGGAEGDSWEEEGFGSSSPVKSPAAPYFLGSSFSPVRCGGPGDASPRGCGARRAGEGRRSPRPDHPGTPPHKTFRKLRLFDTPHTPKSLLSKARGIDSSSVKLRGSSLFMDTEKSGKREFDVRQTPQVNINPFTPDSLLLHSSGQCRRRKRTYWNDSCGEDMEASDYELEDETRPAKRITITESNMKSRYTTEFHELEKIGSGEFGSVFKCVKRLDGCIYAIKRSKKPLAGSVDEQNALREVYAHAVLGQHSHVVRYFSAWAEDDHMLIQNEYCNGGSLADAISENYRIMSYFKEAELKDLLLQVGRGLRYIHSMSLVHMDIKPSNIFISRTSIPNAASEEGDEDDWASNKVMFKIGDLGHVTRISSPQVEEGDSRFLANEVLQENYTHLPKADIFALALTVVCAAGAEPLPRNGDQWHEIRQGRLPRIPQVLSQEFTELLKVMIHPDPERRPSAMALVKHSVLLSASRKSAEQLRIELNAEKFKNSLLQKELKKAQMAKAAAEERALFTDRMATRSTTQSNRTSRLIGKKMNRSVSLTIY

| IC50 (Wee1 kinase) | IC50 (SW480 cells) | Structure (SMILES) | IC50 (H23 cells) |
| --- | --- | --- | --- |
| < 10 nM | 100 to 1000 nM | C=CCn1c(=O)c2cnc(Nc3ccc4c(c3)CN(C(C)=O)CC4)nc2n1-c1cccc(C(C)(C)O)n1 [Example 8, 6-((2-Acetyl-1,2,3,4-tetrahydroisoquinolin-7-yl)amino)-2-allyl-1-(6-(2-hydroxypropan-2-yl)pyridin-2-yl)-1,2-dihydro-3H-pyrazolo[3,4-d]pyrimidin-3-one] | > 1000 nM |
| < 10 nM | > 1000 nM | C=CCn1c(=O)c2cnc(Nc3ccc4c(c3)CN(CCO)CC4)nc2n1-c1cccc(C(C)(C)O)n1 [Example 13, 2-Allyl-6-((2-(2-hydroxyethyl)-1,2,3,4-tetrahydroisoquinolin-7-yl)amino)-1-(6-(2-hydroxypropan-2-yl)pyridin-2-yl)-1,2-dihydro-3H-pyrazolo[3,4-d]pyrimidin-3-one hydrochloride] | 100 to 1000 nM |
| < 10 nM | > 1000 nM | C=CCn1c(=O)c2cnc(Nc3ccc4c(c3)CCNC4)nc2n1-c1cccc(C(C)(C)O)n1 [Example 15, 2-Allyl-1-(6-(2-hydroxypropan-2-yl)pyridin-2-yl)-6-((1,2,3,4-tetrahydroisoquinolin-6-yl)amino)-1,2-dihydro-3H-pyrazolo[3,4-d]pyrimidin-3-one hydrogen chloride] | 100 to 1000 nM |
| < 10 nM | > 1000 nM | C=CCn1c(=O)c2cnc(Nc3ccc4c(c3)CCN(C)C4)nc2n1-c1cccc(C(C)(C)O)n1 [Example 16, 2-Allyl-1-(6-(2-hydroxypropan-2-yl)pyridin-2-yl)-6-((2-methyl-1,2,3,4-tetrahydroisoquinolin-6-yl)amino)-1,2-dihydro-3H-pyrazolo[3,4-d]pyrimidin-3-one] | < 100 nM |
| < 10 nM | > 1000 nM | C=CCn1c(=O)c2cnc(Nc3ccc4c(c3)C(=O)NCC4)nc2n1-c1cccc(C(C)(C)O)n1 [Example 19, 7-((2-Allyl-1-(6-(2-hydroxypropan-2-yl)pyridin-2-yl)-3-oxo-2,3-dihydro-1H-pyrazolo[3,4-d]pyrimidin-6-yl)amino)-3,4-dihydroisoquinolin-1(2H)-one] | > 1000 nM |
| < 10 nM | 100 to 1000 nM | C=CCn1c(=O)c2cnc(Nc3ccc4c(c3)C(=O)N(C)CC4)nc2n1-c1cccc(C(C)(C)O)n1 [Example 20, 7-((2-Allyl-1-(6-(2-hydroxypropan-2-yl)pyridin-2-yl)-3-oxo-2,3-dihydro-H-pyrazolo[3,4-d]pyrimidin-6-yl)amino)-2-methyl-3,4-dihydroisoquinolin-1(2H)-one] | 100 to 1000 nM |
| < 10 nM | > 1000 nM | C=CCn1c(=O)c2cnc(Nc3ccc4c(c3)CC(N(C)C)C4)nc2n1-c1cccc(C(C)(C)O)n1 (stereo not drawn) [Example 22, 2-allyl-6-((2-(dimethylamino)-2,3-dihydro-1H-inden-5-yl)amino)-1-(6-(2-hydroxypropan-2-yl)pyridin-2-yl)-1,2-dihydro-3H-pyrazolo[3,4-d]pyrimidin-3-one] | 100 to 1000 nM |

| Structure (SMILES) | IC50 (Wee1 kinase) | IC50 (SW480 cells) | IC50 (H23 cells) |
| --- | --- | --- | --- |
| C=CCn1c(=O)c2cnc(Nc3ccc4c(c3)CNCC4)nc2n1-c1cccc(C(C)(C)O)n1 [Example 6, 2-Allyl-1-(6-(2-hydroxypropan-2-yl)pyridin-2-yl)-6-((1,2,3,4-tetrahydroisoquinolin-7-yl)amino)-1,2-dihydro-3H-pyrazolo[3,4-d]pyrimidin-3-one hydrochloride] | < 10 nM | 100 to 1000 nM | 100 to 1000 nM |
